Patent US11464780B2, “Pyrazolopyrimidine derivative and use thereof” (Simcere Pharmaceutical Co. Ltd., priority 2018, dated 2022)
Like-named read-outs stand apart in the source and are kept apart here.

What was measured:
Ros-G2032R = target: T1, Ros-G2032R (Homo sapiens, UniProt P08922, G2032R); assay: Kinase inhibitory activity (33P-ATP filter binding, Reaction Biology Corp.); format: biochemical; details: read-out: The half maximal inhibitory concentration IC50 on the kinases, Ros-G2032R
T1 construct: purchased Reaction Biology Corp. (contract assay)
In short: (§1)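 Radioactivity was read by filter binding. Activity was expressed as remaining activity relative to DMSO control, and IC50 came from dose-effect curve fitting.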

Ros1 = target: T2, Ros1 (Homo sapiens, UniProt P08922); assay: as above; format: biochemical; details: read-out: The half maximal inhibitory concentration IC50 on the kinases, Ros1
T2 construct: purchased Reaction Biology Corp. (contract assay)
In short: as §1

TrkA = target: T3, TrkA (Homo sapiens, UniProt P04629); assay: as above; format: biochemical; details: read-out: The half maximal inhibitory concentration IC50 on the kinases, TrkA
T3 construct: purchased Reaction Biology Corp. (contract assay)
In short: as §1

TrkA-G595R = target: T4, TrkA-G595R (Homo sapiens, UniProt P04629, G595R); assay: as above; format: biochemical; details: read-out: The half maximal inhibitory concentration IC50 on the kinases, TrkA-G595R
T4 construct: purchased Reaction Biology Corp. (contract assay)
In short: as §1

TrkA-G667C = target: T5, TrkA-G667C (Homo sapiens, UniProt P04629, G667C); assay: as above; format: biochemical; details: read-out: The half maximal inhibitory concentration IC50 on the kinases, TrkA-G667C
T5 construct: purchased Reaction Biology Corp. (contract assay)
In short: as §1

TrkC = target: T6, TrkC (Homo sapiens, UniProt Q16288); assay: as above; format: biochemical; details: read-out: The half maximal inhibitory concentration IC50 on the kinases, TrkC
T6 construct: purchased Reaction Biology Corp. (contract assay)
In short: as §1

[1] = target: T7, Ba/F3 LMNA-NTRK1-WT stably transfected cell line (Homo sapiens, UniProt P04629); assay: Cell proliferation inhibition (CellTiter-Glo); format: cell-based; details: 72 hours, read-out: The half maximal inhibitory concentration IC50 against cells, Ba/F3 LMNA-NTRK1-WT
T7 construct: fused on or other part: P02545 (Prelamin-A/C)
In short: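 Stably transfected Ba/F3 cells (≥90% viable) were seeded overnight, then exposed in triplicate to a 9-point, 3-fold series (highest 10 μM, prepared as 10× solutions) for 72 h at 37 °C, 5% CO2. Viability was read by ATP luminescence, and IC50 came from a nonlinear sigmoidal fit.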

[2] = target: T8, Ba/F3 LMNA-NTRK1-F589L stably transfected cell line (Homo sapiens, UniProt P04629, F589L, cells depend on it); assay: Cell proliferation inhibition (CellTiter-Glo); format: cell-based; details: 72 hours, read-out: The half maximal inhibitory concentration IC50 against cells, Ba/F3 LMNA-NTRK1-F589L
T8 construct: fused on or other part: P02545 (Prelamin-A/C)

[3] = target: T9, Ba/F3 LMNA-NTRK1-G595R stably transfected cell line (Homo sapiens, UniProt P04629, G595R, cells depend on it); assay: Cell proliferation inhibition (CellTiter-Glo); format: cell-based; details: 72 hours, read-out: The half maximal inhibitory concentration IC50 against cells, Ba/F3 LMNA-NTRK1-G595R
T9 construct: fused on or other part: P02545 (Prelamin-A/C)

[4] = In vivo pharmacokinetic test in mice; set-up: species or system male CD-1 mice; details: for Cmax: read-out: Peak concentration Cmax; for AUC(0-t): read-out: Area under the curve AUC0-last
In short: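 Male CD-1 mice, 7-9 weeks, given a single IV (3 mg/kg) or intragastric dose in 5% DMSO/10% solutol/85% water. Plasma drug levels measured by LC/MS/MS at multiple time points to derive PK parameters.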

[5] = male, CD-1, mouse, plasma, PO dose of 10 mL/kg

T8 sequence (P04629 whole entry F589L, the tested form may be a part): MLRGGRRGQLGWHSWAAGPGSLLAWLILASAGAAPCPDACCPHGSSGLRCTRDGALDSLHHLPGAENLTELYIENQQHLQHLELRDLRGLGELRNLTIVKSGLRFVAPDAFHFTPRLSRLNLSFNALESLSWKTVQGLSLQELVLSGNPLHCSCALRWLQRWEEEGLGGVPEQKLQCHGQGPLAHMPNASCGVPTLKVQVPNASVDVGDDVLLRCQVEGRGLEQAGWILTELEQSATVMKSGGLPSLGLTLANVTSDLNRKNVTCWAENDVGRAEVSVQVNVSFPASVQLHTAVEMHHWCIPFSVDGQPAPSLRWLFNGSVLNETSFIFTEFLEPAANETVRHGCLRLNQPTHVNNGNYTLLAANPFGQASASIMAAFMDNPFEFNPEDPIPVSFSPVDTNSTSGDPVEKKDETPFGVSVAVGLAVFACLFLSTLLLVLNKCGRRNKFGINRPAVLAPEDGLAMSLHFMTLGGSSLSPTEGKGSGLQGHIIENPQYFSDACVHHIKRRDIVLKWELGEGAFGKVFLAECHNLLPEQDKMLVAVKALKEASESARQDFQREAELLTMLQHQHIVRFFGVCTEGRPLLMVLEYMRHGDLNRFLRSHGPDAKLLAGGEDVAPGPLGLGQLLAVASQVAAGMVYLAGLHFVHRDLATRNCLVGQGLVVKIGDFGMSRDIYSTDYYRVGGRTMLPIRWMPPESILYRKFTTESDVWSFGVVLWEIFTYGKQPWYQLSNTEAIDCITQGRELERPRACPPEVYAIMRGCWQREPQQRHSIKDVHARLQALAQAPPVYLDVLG
T5 sequence (P04629 33-796 G667C): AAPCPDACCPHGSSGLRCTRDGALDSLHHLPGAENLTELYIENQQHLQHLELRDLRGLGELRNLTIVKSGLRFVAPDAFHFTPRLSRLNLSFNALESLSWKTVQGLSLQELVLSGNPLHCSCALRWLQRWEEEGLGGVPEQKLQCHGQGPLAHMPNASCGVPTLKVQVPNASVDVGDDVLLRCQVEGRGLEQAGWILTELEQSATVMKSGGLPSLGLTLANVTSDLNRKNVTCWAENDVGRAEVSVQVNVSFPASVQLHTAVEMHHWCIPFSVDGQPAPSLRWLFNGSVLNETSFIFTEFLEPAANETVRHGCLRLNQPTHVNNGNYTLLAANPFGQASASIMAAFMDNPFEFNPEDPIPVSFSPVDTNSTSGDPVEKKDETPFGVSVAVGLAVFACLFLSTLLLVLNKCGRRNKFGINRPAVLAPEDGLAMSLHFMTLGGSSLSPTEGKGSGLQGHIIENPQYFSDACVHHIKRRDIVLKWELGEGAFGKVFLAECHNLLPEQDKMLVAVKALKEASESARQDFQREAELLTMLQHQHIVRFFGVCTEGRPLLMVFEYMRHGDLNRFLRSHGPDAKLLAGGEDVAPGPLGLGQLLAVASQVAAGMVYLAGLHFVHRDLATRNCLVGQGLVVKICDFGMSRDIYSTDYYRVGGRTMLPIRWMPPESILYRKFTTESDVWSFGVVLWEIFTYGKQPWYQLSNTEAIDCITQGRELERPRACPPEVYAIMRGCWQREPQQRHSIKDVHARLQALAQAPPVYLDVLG
T4 sequence (P04629 33-796 G595R): as the sequence (P04629 33-796 G667C) above, with G563R, C635G counted along it
T2 sequence (P08922 28-2347): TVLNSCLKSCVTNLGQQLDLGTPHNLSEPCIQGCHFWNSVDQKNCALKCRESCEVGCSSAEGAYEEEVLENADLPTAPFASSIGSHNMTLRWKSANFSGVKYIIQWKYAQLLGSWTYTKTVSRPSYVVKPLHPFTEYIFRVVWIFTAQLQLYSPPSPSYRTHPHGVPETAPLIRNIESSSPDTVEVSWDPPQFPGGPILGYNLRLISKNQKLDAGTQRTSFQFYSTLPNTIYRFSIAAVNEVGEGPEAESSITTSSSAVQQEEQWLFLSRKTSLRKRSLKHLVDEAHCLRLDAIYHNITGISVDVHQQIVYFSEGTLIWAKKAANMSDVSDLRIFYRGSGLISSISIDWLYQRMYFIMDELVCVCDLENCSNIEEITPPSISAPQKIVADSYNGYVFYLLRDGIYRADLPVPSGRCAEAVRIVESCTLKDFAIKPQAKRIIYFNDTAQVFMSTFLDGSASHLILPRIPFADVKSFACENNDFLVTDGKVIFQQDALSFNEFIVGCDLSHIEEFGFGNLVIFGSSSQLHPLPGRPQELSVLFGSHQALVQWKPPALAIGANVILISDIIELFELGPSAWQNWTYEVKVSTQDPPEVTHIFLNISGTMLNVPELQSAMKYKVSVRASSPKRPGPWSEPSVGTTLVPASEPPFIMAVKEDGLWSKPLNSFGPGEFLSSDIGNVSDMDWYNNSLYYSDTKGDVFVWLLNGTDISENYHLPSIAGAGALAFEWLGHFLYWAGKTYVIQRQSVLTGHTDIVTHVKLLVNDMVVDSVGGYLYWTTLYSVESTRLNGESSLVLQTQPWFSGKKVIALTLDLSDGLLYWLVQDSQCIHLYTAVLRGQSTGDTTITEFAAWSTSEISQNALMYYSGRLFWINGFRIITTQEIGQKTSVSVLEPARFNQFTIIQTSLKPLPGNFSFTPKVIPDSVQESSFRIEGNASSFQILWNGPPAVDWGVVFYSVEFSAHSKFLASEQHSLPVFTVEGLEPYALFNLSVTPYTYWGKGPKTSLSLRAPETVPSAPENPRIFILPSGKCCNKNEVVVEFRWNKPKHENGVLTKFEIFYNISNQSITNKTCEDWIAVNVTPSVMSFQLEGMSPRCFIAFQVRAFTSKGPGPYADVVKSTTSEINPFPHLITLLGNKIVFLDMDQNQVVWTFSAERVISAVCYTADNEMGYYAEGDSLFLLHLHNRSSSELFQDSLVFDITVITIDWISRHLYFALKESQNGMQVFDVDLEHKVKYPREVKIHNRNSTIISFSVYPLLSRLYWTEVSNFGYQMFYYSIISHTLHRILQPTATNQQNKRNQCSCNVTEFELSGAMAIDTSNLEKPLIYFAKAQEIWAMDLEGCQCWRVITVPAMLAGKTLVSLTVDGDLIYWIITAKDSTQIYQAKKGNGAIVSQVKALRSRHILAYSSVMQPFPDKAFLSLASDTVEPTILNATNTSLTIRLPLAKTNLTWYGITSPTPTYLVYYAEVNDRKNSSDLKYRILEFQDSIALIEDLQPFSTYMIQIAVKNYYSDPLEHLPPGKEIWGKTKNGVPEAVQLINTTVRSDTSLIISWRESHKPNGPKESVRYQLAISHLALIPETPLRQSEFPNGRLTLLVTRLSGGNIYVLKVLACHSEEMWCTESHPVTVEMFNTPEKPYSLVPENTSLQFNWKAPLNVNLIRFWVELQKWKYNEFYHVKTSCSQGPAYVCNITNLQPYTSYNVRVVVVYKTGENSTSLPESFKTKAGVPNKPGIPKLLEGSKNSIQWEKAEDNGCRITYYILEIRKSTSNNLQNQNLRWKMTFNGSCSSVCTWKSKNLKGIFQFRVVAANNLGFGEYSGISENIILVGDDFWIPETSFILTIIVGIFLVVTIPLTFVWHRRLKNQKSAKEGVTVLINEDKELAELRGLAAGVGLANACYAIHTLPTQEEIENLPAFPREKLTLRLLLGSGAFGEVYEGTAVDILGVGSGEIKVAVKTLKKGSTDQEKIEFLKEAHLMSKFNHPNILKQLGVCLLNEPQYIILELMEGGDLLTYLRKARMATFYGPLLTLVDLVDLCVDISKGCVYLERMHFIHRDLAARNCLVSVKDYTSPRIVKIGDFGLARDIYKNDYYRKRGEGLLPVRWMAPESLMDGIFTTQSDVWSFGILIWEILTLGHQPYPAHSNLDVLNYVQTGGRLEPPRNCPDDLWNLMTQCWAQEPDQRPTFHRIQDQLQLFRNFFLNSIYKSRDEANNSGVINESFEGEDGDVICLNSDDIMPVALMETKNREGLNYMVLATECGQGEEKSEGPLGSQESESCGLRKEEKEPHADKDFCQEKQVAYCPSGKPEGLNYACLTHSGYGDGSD
T9 sequence (P04629 whole entry G595R, the tested form may be a part): as the sequence (P04629 whole entry F589L, the tested form may be a part) above, with L589F, G595R counted along it
T7 sequence (P04629 whole entry, stated change not applied, the tested form may be a part): as the sequence (P04629 whole entry F589L, the tested form may be a part) above, with L589F counted along it
T6 sequence (Q16288 32-839): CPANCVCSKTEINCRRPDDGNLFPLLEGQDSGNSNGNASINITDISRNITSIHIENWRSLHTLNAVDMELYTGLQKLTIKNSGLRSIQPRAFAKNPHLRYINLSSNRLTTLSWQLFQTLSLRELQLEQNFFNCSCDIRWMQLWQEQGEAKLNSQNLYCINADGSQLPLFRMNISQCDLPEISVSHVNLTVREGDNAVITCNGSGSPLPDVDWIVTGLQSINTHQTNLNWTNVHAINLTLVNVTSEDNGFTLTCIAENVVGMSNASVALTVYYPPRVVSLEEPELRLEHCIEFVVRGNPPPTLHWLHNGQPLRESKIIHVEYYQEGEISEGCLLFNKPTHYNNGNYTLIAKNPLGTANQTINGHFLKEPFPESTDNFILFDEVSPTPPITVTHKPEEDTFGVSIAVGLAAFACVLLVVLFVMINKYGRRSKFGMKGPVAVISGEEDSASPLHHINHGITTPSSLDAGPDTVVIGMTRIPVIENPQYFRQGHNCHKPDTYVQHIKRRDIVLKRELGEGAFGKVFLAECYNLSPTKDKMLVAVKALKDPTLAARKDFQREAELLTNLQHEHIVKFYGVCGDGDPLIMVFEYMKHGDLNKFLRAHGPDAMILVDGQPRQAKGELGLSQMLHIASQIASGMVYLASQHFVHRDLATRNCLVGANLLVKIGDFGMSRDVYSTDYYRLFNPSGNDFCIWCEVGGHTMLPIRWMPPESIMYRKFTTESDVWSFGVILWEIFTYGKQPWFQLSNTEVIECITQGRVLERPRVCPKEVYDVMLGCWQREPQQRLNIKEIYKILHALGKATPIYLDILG
T3 sequence (P04629 33-796): as the sequence (P04629 33-796 G667C) above, with C635G counted along it
T1 sequence (P08922 28-2347 G2032R): as the sequence (P08922 28-2347) above, with G2005R counted along it

| SMILES | IC50 (Ros-G2032R) | IC50 (Ros1) | IC50 (TrkA) | IC50 (TrkA-G595R) | IC50 (TrkA-G667C) | IC50 (TrkC) | GI50 [1] | GI50 [2] | GI50 [3] | Apparent clearance Cl ([4]; IV dose of 3 mg/kg) | also measured |
| --- | --- | --- | --- | --- | --- | --- | --- | --- | --- | --- | --- |
| O=C1NC2(CC2)COc2ncc(F)cc2[C@H]2CCON2c2ccn3ncc1c3n2 [WX002A] | 0.4 nM | 0.14 nM | 2.07 nM | 3.6 nM | 7 nM | 0.14 nM | 1.26 nM | 0.78 nM | 6.2 nM | 7.2 mL/min/kg | Apparent volume of distribution Vd ([4]; IV dose of 3 mg/kg): 0.49 L/kg; Area under the curve AUC0-last ([4]; IV dose of 3 mg/kg): 17.502 µM·h; Half life T1/2 ([4]; IV dose of 3 mg/kg): 45 min; Area under the curve AUC0-last ([4]; PO dose of 10 mL/kg): 29.787 µM·h; Time of peak concentration Tmax ([4]; PO dose of 10 mL/kg): 30 min; Bioavailability F % ([4]; PO dose of 10 mL/kg vs IV 3 mg/kg): 51%; Cmax ([4]; PO dose of 10 mL/kg): 9.14 µM |
| O=C1N[C@@H]2COC[C@@H]2Oc2ncc(F)cc2[C@H]2CCON2c2ccn3ncc1c3n2 [WX008A] | 0.52 nM | 0.16 nM | 1.61 nM | 2.31 nM | 6.49 nM | 0.05 nM | 1.6 nM | 1.59 nM | 3.92 nM | 6.7 mL/min/kg | Vd ([4]; male, CD-1, mouse, plasma, IV dose of 3 mg/kg, read-out: Apparent volume of distribution Vd): 0.62 L/kg; AUC(0-t) ([4]; male, CD-1, mouse, plasma, IV dose of 3 mg/kg): 18.2 µM·h; half-life ([4]; male, CD-1, mouse, plasma, IV dose of 3 mg/kg, read-out: Half life T1/2 (converted)): 68.4 min; bioavailability ([4]; male, CD-1, mouse, plasma, PO dose of 10 mL/kg vs IV 3 mg/kg, read-out: Bioavailability F %): 65%; AUC(0-t) [4, 5]: 39.6 µM·h; Cmax [4, 5]: 12.2 µM; Tmax ([4]; male, CD-1, mouse, plasma, PO dose of 10 mL/kg, read-out: Time of peak concentration Tmax): 15 min |
